Measured values reported in paper PMC3818563, “Effect of Iboga Alkaloids on µ-Opioid Receptor-Coupled G Protein Activation” (PLoS ONE, 2013).
Values joined by “and” are separate entries in the source; they are usually repeats but may differ in a detail not shown here. Identical values can stand only once. “Also recorded” adds a separate entry of the source. Counter-ions that a name gives are not always drawn. Like-named read-outs stand apart in the source and are kept apart here.

Assays:
μ-opioid receptor (MOR) [1] = target: T1, μ-opioid receptor (MOR) (Rattus norvegicus, UniProt P33535); assay: [35S]GTPγS binding in Sprague-Dawley rat thalamic membranes (Reith lab); assay type: biochemical; set-up: from tissue; host or cells: rat thalamus membranes (Sprague-Dawley; also Fischer F344 in the Janowsky lab); settings: for Ki: Antagonist activity Ke (functional Ki), Sprague-Dawley rat thalamic membranes (Reith lab), versus DAMGO (1 µM) as agonist
[2] = Solubility of stocks in water; settings: thermodynamic from solid
mouse mMOR = target: T2, mouse mMOR (Mus musculus, UniProt P42866); assay: [35S]GTPγS binding in mMOR-expressing HEK 293 cells (Reith lab); assay type: biochemical
T2 construct: expressed in transfected cells

μ-opioid receptor (MOR) [3] = target: T1, μ-opioid receptor (MOR); assay: [35S]GTPγS binding in Sprague-Dawley / Fischer 344 rat thalamic membranes (Janowsky lab); assay type: biochemical; set-up: from tissue; host or cells: rat thalamus membranes (Sprague-Dawley; also Fischer F344 in the Janowsky lab)
NMDA receptor = settings: cited from earlier work
μ-opioid receptor (MOR) [4] = settings: cited from earlier work
μ-opioid receptor (MOR) [5] = target: T1, μ-opioid receptor (MOR); assay: [35S]GTPγS binding in Sprague-Dawley rat thalamic membranes (Childers lab); assay type: biochemical; set-up: from tissue; host or cells: rat thalamus membranes (Sprague-Dawley; also Fischer F344 in the Janowsky lab)
rat rMOR = target: T3, rat rMOR (Rattus norvegicus, UniProt P33535); assay: [35S]GTPγS binding in rMOR-expressing CHO cells (Janowsky lab); assay type: biochemical; settings: read-out: Agonist activity Emax (%)
T3 construct: expressed in transfected cells

human hMOR = target: T4, human hMOR (Homo sapiens, UniProt P35372); assay: [35S]GTPγS binding in hMOR-expressing CHO cells (Rothman lab); assay type: biochemical
T4 construct: expressed in transfected cells

μ-opioid receptor (MOR) [6] = target: T1, μ-opioid receptor (MOR); set-up: method as in PMID 9592058; settings: rat thalamic membranes, cited from earlier work
μ-opioid receptor (MOR) [7] = target: T1, μ-opioid receptor (MOR); assay: In vitro autoradiography of agonist-stimulated [35S]GTPγS binding in rat brain sections (Childers lab); assay type: biochemical; set-up: from tissue; settings: noribogaine by itself at concentrations up to 30 µM
[8] = estimated; cited from earlier work
[9] = target: mouse µ-opioid receptor (mMOR) (mouse) (UniProt P42866)
[10] = target: µ-opioid receptor (MOR) of rat brain (rat (endogenous in rat thalamus and brain sections)) (UniProt P33535)
[11] = target: rat µ-opioid receptor (rMOR), recombinant (rat) (UniProt P33535)
[12] = target: µ-opioid receptor (MOR) of rat brain (rat (endogenous in rat thalamus and brain sections)) (UniProt P33535); remark: listed apart in the source
α2 receptor = settings: cited from earlier work
[13] = Sprague-Dawley rat thalamic membranes, concentrations up to 100 µM
[14] = read-out: Agonist activity Emax (%)
[15] = concentrations up to 10^-5 M, Janowsky lab procedures or procedures of Pablo and Mash

T2 sequence (P42866 whole entry): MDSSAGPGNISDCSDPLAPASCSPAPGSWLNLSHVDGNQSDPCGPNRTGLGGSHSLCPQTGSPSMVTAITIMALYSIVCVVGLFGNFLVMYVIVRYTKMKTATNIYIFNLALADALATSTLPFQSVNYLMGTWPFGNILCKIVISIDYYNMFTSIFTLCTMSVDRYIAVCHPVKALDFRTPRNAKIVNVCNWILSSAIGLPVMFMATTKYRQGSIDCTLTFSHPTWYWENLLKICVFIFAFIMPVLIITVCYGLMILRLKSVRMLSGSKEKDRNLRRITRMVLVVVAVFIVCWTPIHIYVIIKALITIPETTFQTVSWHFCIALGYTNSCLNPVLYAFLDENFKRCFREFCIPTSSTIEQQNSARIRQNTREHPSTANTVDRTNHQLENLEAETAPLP
T1 sequence (P33535 whole entry): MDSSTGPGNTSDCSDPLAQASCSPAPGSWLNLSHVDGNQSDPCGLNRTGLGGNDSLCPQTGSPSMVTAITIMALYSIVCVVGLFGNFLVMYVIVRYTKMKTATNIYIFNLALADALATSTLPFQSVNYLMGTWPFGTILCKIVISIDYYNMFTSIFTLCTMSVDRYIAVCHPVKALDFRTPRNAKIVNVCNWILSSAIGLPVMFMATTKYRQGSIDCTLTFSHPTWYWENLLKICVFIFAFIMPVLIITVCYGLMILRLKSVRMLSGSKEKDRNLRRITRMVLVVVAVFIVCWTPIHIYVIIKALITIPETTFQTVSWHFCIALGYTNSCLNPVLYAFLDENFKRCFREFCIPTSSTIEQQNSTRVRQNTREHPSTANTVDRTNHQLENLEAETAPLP
Chain of µ-opioid receptor (MOR) of rat brain (rat (endogenous in rat thalamus and brain sections)) (P33535 whole entry): as above
Chain of mouse µ-opioid receptor (mMOR) (mouse) (P42866 whole entry): as the sequence (P42866 whole entry) above
T3 sequence (P33535 whole entry): as the sequence (P33535 whole entry) above
Chain of rat µ-opioid receptor (rMOR), recombinant (rat) (P33535 whole entry): as above
T4 sequence (P35372 whole entry): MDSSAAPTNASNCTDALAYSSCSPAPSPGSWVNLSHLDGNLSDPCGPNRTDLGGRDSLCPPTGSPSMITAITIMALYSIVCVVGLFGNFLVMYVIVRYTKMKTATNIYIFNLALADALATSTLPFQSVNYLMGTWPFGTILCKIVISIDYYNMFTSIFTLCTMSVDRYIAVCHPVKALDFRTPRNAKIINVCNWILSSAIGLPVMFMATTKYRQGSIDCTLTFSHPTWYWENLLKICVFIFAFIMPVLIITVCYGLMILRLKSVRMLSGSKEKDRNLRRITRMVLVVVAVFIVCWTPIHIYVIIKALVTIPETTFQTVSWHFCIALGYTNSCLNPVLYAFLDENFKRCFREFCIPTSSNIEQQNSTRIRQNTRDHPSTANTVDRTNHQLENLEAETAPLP

With `COCC[C@H]1CC2CN3CCc4c([nH]c5ccccc45)[C@](C(=O)OC)(C2)[C@H]13` [18-MC, 18-methoxycoronaridine] the IC50 (μ-opioid receptor (MOR) [1]) was 83.3 ± 19.4 µM, the Ki (μ-opioid receptor (MOR) [1]) was 13 µM and 13.2 µM and the “stimulation of [35S]GTPγS binding” value (μ-opioid receptor (MOR) [1]; [13]) was “no significant stimulation; also recorded: no efficacy”. For the same compound, the solubility [2] was no less than 1000 µM, the EC50 (mouse mMOR) was 3.42 ± 2.2 µM and the Ki (mouse mMOR) was 19.1 ± 2.97 µM. For the same compound, the Emax (mouse mMOR; [14]) was 19 ± 4%, the “stimulation of [35S]GTPγS binding” value (μ-opioid receptor (MOR) [3]; [15]) was “did not stimulate” and the “affinity for the NMDA receptor” value (NMDA receptor) was “lacks significant affinity”. The “affinity for the μ-opioid receptor (MOR)” value (μ-opioid receptor (MOR) [4]) was “low micromolar range”.
For `C[C@@H](NC(=O)[C@@H](N)Cc1ccc(O)cc1)C(=O)NCC(=O)N(C)[C@@H](Cc1ccccc1)C(=O)NCCO` [DAMGO, [D-Ala^2, N-MePhe^4, Gly-ol]-enkephalin, reference compound], the Emax (μ-opioid receptor (MOR) [5]; [14]) was 100%, the “maximal level of stimulation of [35S]GTPγS binding over basal” value (μ-opioid receptor (MOR) [1]; Sprague-Dawley rat thalamic membranes) was 214 ± 6% and the Emax (μ-opioid receptor (MOR) [1]; [14]) was 100%. For the same compound, the Emax (mouse mMOR; read-out: maximal stimulation of [35S]GTPγS binding over basal) was 257 ± 12%, the Emax (rat rMOR) was 100% and the Emax (μ-opioid receptor (MOR) [3]; [14]) was 100%.
In the case of `CC[C@H]1C[C@@H]2C[C@H]3c4[nH]c5ccc(O)cc5c4CCN(C2)[C@@H]13` [Noribogaine, Noribogaine HCl], the “inhibition of the stimulation evoked by 1 µM DAMGO” value (μ-opioid receptor (MOR) [5]; Sprague-Dawley rat thalamic membranes (Childers lab), noribogaine up to 10 µM) is reported as “did not inhibit”, the “effect on [35S]GTPγS binding by itself” value (μ-opioid receptor (MOR) [5]; concentrations up to 30 µM) is reported as “did not have any effect” and the IC50 (μ-opioid receptor (MOR) [1]) is reported as 84 ± 27.8 µM. For the same compound, the Ki (μ-opioid receptor (MOR) [1]) was 13 µM and 13.3 µM, the “stimulation of [35S]GTPγS binding” value (μ-opioid receptor (MOR) [1]; [13]) was “no significant stimulation; also recorded: no efficacy” and the Ki (human hMOR) was 1.48 ± 0.25 µM. It also gave a solubility [2] of no less than 1000 µM, an EC50 (mouse mMOR) of 7.42 ± 1.3 µM and a Ki (mouse mMOR) of 38.3 ± 1.71 µM. The Emax (mouse mMOR; [14]) was 36 ± 6%, the “agonist classification by naloxone-sensitive stimulation of [35S]GTPγS binding” value (μ-opioid receptor (MOR) [6]) was “full MOR agonist” and the EC50 (μ-opioid receptor (MOR) [6]; read-out: EC50 for stimulating [35S]GTPγS binding) was 0.324 µM. For the same compound, the “stimulation of [35S]GTPγS binding” value (μ-opioid receptor (MOR) [3]; [15]) was “did not stimulate”, the “effect on [35S]GTPγS binding in any brain region” value (μ-opioid receptor (MOR) [7]) was “had no effect” and the “half-life relative to parent compound” value [8] was “considerably longer than that of the parent compound”. For the same compound, the “affinity for the μ-opioid receptor (MOR)” value (μ-opioid receptor (MOR) [4]) was “low micromolar range”.
“DAMGO ([D-Ala^2, N-MePhe^4, Gly-ol]-enkephalin) (peptide)” gave a maximal stimulation of [35S]GTPγS binding over basal, HEK 293-mMOR cell membranes (Reith lab) [9] of 257 % over basal, an EC50 of stimulation of [35S]GTPγS binding, Sprague-Dawley and Fischer 344 rat thalamic membranes (Janowsky lab) [10] of 0.122 µM and an EC50 of stimulation of [35S]GTPγS binding, Sprague-Dawley rat thalamic membranes (Childers lab) [10] of 0.21 µM. The EC50 of stimulation of [35S]GTPγS binding, Sprague-Dawley rat thalamic membranes (Reith lab) [10] was 0.238 µM, the EC50 of stimulation of [35S]GTPγS binding, CHO rMOR cell membranes (Janowsky lab) [11] was 0.034 µM and the maximal stimulation of [35S]GTPγS binding over basal, Sprague-Dawley rat thalamic membranes (Reith lab) [12] was 214 % over basal.
For Ibogaine HCl, the “stimulation of [35S]GTPγS binding” value (μ-opioid receptor (MOR) [1]) is given as “no significant stimulation”, the “stimulation of [35S]GTPγS binding” value (μ-opioid receptor (MOR) [6]; 100 µM ibogaine) is given as roughly 20% and the “stimulation of [35S]GTPγS binding” value (μ-opioid receptor (MOR) [6]; concentrations of 100 µM to 1 mM) is given as 20-30%. The “stimulation of [35S]GTPγS binding” value (μ-opioid receptor (MOR) [3]) was “did not stimulate”, the “affinity for the α2 receptor” value (α2 receptor) was “no significant affinity” and the “affinity for the μ-opioid receptor (MOR)” value (μ-opioid receptor (MOR) [4]) was “low micromolar range”.
